Measured values: patent US20030010621A1, “NOVEL SYNTHESIS OF PHTHALOCYANINES BY MICROWAVE IRRADIATION” (priority 2001, published 2003)

Assay: Solubility of lab-made phthalocyanines in organic solvents
Format: physicochemical

| Structure (SMILES) | solubility (THF) | solubility (acetone) | solubility (methanol) | solubility (n-hexane) | solubility (toluene) |
| --- | --- | --- | --- | --- | --- |
| [Co+2].c1ccc2c(c1)-c1nc-2nc2[n-]c(nc3nc(nc4[n-]c(n1)c1ccccc41)-c1ccccc1-3)c1ccccc21 [CoPc] | ◯ (slightly soluble (1 wt. % ˜ 3 wt. %)) | ◯ (slightly soluble (1 wt. % ˜ 3 wt. %)) | Δ (hardly soluble (<1 wt. %)) | Δ (hardly soluble (<1 wt. %)) | ◯ (slightly soluble (1 wt. % ˜ 3 wt. %)) |
| [Ni+2].c1ccc2c(c1)-c1nc-2nc2[n-]c(nc3nc(nc4[n-]c(n1)c1ccccc41)-c1ccccc1-3)c1ccccc21 [NiPc] | ◯ (slightly soluble (1 wt. % ˜ 3 wt. %)) | ◯ (slightly soluble (1 wt. % ˜ 3 wt. %)) | Δ (hardly soluble (<1 wt. %)) | Δ (hardly soluble (<1 wt. %)) | ◯ (slightly soluble (1 wt. % ˜ 3 wt. %)) |
